Results as given in PMC3199943, “Screening the MayBridge Rule of 3 Fragment Library for Compounds That Interact with the Trypanosoma brucei myo-Inositol-3-Phosphate Synthase and/or Show Trypanocidal Activity” (Molecular Biology International, 2011).
Where two headings read alike, the source gives them in different places.

Experiments:
[1] = target: T1, TbINO1 (Trypanosoma brucei brucei, UniProt Q5QQ46); assay: biochemical; assay type: binding
T1 sequence (Q5QQ46 1-528): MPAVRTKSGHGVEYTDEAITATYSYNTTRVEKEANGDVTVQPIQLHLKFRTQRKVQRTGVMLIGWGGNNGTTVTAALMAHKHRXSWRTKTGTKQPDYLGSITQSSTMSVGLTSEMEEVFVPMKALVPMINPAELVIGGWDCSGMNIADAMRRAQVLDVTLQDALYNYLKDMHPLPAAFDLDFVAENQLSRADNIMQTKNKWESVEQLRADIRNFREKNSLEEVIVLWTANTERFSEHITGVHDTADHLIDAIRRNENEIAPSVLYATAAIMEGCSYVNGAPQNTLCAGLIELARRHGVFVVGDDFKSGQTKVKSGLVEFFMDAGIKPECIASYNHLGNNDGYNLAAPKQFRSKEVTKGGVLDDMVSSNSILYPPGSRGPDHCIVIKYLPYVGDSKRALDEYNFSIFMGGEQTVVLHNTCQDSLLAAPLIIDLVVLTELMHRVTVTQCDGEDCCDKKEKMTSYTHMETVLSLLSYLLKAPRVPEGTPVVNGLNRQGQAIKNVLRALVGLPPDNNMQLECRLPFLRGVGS

[2] = tested on: HeLa cells; assay: cells; conditions: for viability at 500 µM: 65 h; for HeLa Cells Alamar Blue: Supplementary Table 1, compound 0.5 mM, percentage of controls, mean ± SD (n=3) or SE (n=2)
Outline: (§1)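 Viability by Alamar Blue (5 h) after ~65 h drug treatment; seeding density 2 × 10^4 cells/well in DMEM supplemented with 10% FCS and 2 mM L-Glutamine.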

[3] = tested on: A549 cells; assay: Cytotoxicity against A549 cells, Alamar Blue; assay type: cell-based; conditions: Supplementary Table 1, compound 0.5 mM, percentage of controls (n=1); for viability at 500 µM: Homo sapiens, A549, 65 h
Outline: as §1

[4] = read-out: Tb Ino1 Tm Shift [˚C]
[5] = Homo sapiens, HeLa, read-out: HeLa Cells Alamar Blue
[6] = Supplementary Table 1, compound 1mM, mean ± SD from Boltzman curve fitting

| SMILES | ΔTm at 1000 µM [1, 4] | viability at 500 µM [2, 5] | viability at 500 µM [3] | Tb Ino1 Tm Shift [˚C] [1, 6] | HeLa Cells Alamar Blue [2] | A549 Cells Alamar Blue [3] | further results |
| --- | --- | --- | --- | --- | --- | --- | --- |
| CC1Cc2ccccc2C1=O (centres unmarked) [compound 157, 2‐methylindan‐1‐one] | 0.14 ± 0.07 °C | 94.7 ± 3.5% | 126% | – | – | – | – |
| OCc1cn2ccccc2n1 [compound 172, imidazo[1,2‐a]pyridin‐2‐ylmethanol] | 0.44 ± 0.08 °C | 86.6 ± 15.1% | 97.5% | – | – | – | – |
| Nc1cccc(Cn2ccnc2)c1 [compound 377, 3‐(1H‐imidazol‐1‐ylmethyl)aniline] | 0.19 ± 0.07 °C | 103 ± 12.6% | 62.4% | – | – | – | – |
| COc1ccc(Cl)cc1C(=O)O [compound 508, 5‐chloro‐2‐methoxybenzoic acid] | 0.07 ± 0.07 °C | 78.4 ± 17.3% | 101% | – | – | – | – |
| CC(=O)c1nccnc1C [compound 117, 1‐(3‐methylpyrazin‐2‐yl)ethan‐1‐one] | 0.4 ± 0.06 °C | 87.6 ± 11.3% | 88.3% | – | – | – | – |
| CC1(C)C=Cc2cc(C#N)ccc2O1 [compound 487, 2,2‐dimethyl‐2H‐chromene‐6‐carbonitrile] | 0 °C | 112 ± 14.6% | 108% | – | – | – | – |
| N#Cc1c(N)cccc1Cl [compound 210, 2‐amino‐6‐chlorobenzonitrile] | 0.15 ± 0.08 °C | 91.5 ± 10.8% | 89.2% | – | – | – | – |
| CC1CCN(CC(C)(C)N)CC1 [compound 349, 2‐methyl‐1‐(4‐methylpiperidino)‐2‐propanamine] | – | – | – | 0.53 ± 0.06 °C | 108.4 ± 7.2 percentage of controls | 144.1 percentage of controls | – |
| N#Cc1ccc(Oc2ccccn2)cc1 [compound 596, 4‐(pyridin‐2‐yloxy)benzonitrile] | 0.68 ± 0.07 °C | 97.7 ± 11% | 72.1% | – | – | – | – |
| Cc1ccc(C#N)c(N)c1 [compound 97, 2-amino-4-methylbenzonitrile] | – | 81.4 ± 7.4% | 96.2% | – | – | – | ΔTm at 1000 µM ([1]; read-out: TbIno1 Tm shift [°C]): 1.58 ± 0.07 °C; viability at 500 µM ([2]; Homo sapiens, HeLa, read-out: HeLa Cells Alamar Blue (% survival)): 81.4 ± 7.4% |
| OCc1cccc(N2CCCC2)c1 [compound 428, (3‐pyrrolidin‐1‐ylphenyl)methanol] | 0.44 ± 0.07 °C | 12.6 ± 5.6% | 81.2% | – | – | – | – |
| Cn1nc(-c2cccs2)cc1N [compound 450, 1‐methyl‐3‐(2‐thienyl)‐1H‐pyrazol‐5‐amine] | – | – | – | 1.1 ± 0.06 °C | 89.3 ± 5.5 percentage of controls | 90.7 percentage of controls | – |
| COC(=O)c1cscc1N [compound 244, methyl 4‐aminothiophene‐3‐carboxylate] | 0.61 ± 0.11 °C | 78.7 ± 17.9% | 90.3% | – | – | – | – |
| Cc1nc(-c2ccc(C#N)cc2)cs1 [compound 625, 4‐(2‐methyl‐1,3‐thiazol‐4‐yl)benzonitrile] | 1.06 ± 0.07 °C | 74.1 ± 7.1% | 79.4% | – | – | – | – |
| Cc1nn(C)c(C)c1CN [compound 128, (1,3,5‐trimethyl‐1H‐pyrazol‐4‐yl)methylamine] | – | – | – | 0.22 ± 0.06 °C | 80.3 ± 7 percentage of controls | 87.7 percentage of controls | – |
| OCc1ccc(-c2ccccn2)s1 [compound 556, [5‐(2‐pyridinyl)‐2‐thienyl]methanol] | 0.19 ± 0.08 °C | 70.2 ± 11% | 93.9% | – | – | – | – |
| O=C(O)c1cccc(-c2ccccn2)c1 [compound 611, 3‐pyrid‐2‐ylbenzoic acid] | 0.19 ± 0.07 °C | 87 ± 12.6% | 73.9% | – | – | – | – |
| CCOC(=O)c1csc(C)n1 [compound 356, ethyl 2‐methyl‐1,3‐thiazole‐4‐carboxylate] | 0.28 ± 0.08 °C | 106 ± 5.3% | 79.8% | – | – | – | – |
| Cn1nc(-c2cccs2)cc1CO [compound 587, (1‐methyl‐3‐thien‐2‐yl‐1H‐pyrazol‐5‐yl)methanol] | – | – | – | 0.36 ± 0.07 °C | 91.6 ± 8.8 percentage of controls | 65.8 percentage of controls | – |
| O=C(O)Cc1ccccc1O [compound 201, 2‐(2‐hydroxyphenyl)acetic acid] | 0.65 ± 0.08 °C | 94.1 ± 15.7% | 94.2% | – | – | – | – |

| SMILES | ΔTm at 1000 µM [1, 4] | viability at 500 µM [2, 5] | viability at 500 µM [3] | Tb Ino1 Tm Shift [˚C] [1, 6] | HeLa Cells Alamar Blue [2] | A549 Cells Alamar Blue [3] | further results |
| --- | --- | --- | --- | --- | --- | --- | --- |
| CC(=O)c1ccc2c(c1)OCCO2 [compound 430, 1‐(2,3‐dihydro‐1,4‐benzodioxin‐6‐yl)ethan‐1‐one] | – | – | – | 0.13 ± 0.08 °C | 91.1 ± 12.8 percentage of controls | 101.8 percentage of controls | – |
| Nc1ccc2c(c1)OCCO2 [compound 193, 2,3‐dihydro‐1,4‐benzodioxin‐6‐amine] | 0.4 ± 0.09 °C | 79.9 ± 13.6% | 44.7% | – | – | – | – |
| OCc1ccc(-c2ccco2)s1 [compound 458, [5‐(2‐furyl)thien‐2‐yl]methanol] | 0.6 ± 0.02 °C | 94 ± 12.5% | 73.6% | – | – | – | – |
| N#CCOc1ccc(C(F)(F)F)cn1 [compound 634, 2‐{[5‐(trifluoromethyl)‐2‐pyridyl]oxy}acetonitrile] | – | – | – | 0.24 ± 0.09 °C | 73.3 ± 1.6 percentage of controls | 87.2 percentage of controls | – |
| OCc1nc2ccccc2[nH]1 [compound 169, 1H‐benzimidazol‐2‐ylmethanol] | 0.04 ± 0.07 °C | 121 ± 15% | 81.7% | – | – | – | – |
| COC(=O)c1cc(C)[nH]c1C [compound 214, methyl 2,5‐dimethyl‐1H‐pyrrole‐3‐carboxylate] | – | – | – | 0.78 ± 0.06 °C | 74.8 ± 18 percentage of controls | 64.4 percentage of controls | – |
| Nc1ccc2c(c1)CCCC2=O [compound 280, 6‐amino‐1,2,3,4‐tetrahydronaphthalen‐1‐one] | – | – | – | 0.82 ± 0.09 °C | 40.5 ± 19.2 percentage of controls | 87.3 percentage of controls | – |
| C#CCN1CCS(=O)(=O)CC1 [compound 379, 4‐(Prop‐2‐ynyl)thiomorpholine 1,1‐dioxide] | – | – | – | 0.32 ± 0.08 °C | 95.6 ± 12.9 percentage of controls | 154 percentage of controls | – |
| Cn1c(CN)nc2ccccc21 [compound 281, (1‐methyl‐1H‐benzimidazol‐2‐yl)methylamine] | 0.7 ± 0.04 °C | 47.6 ± 19.8% | 53.8% | – | – | – | CC50 ([2]; Homo sapiens, HeLa, read-out: HeLa ED50): 659 ± 65 µM |
| OCc1csc(-c2cccnc2)n1 [compound 566, (2‐pyridin‐3‐yl‐1,3‐thiazol‐4‐yl)methanol] | 0.29 ± 0.07 °C | 88.4 ± 18.2% | 104% | – | – | – | – |
| COC(=O)c1ccc(F)cc1Cl [compound 531, methyl 2‐chloro‐4‐fluorobenzoate] | 0.25 ± 0.07 °C | 84 ± 11.8% | 75.7% | – | – | – | – |
| Cc1cc(Cl)ccc1C(=O)O [compound 350, 4‐chloro‐2‐methylbenzoic acid] | 1.05 ± 0.07 °C | 108 ± 9.9% | 160% | – | – | – | – |
| Cc1ccc2c(c1)OCO2 [compound 116, 5‐methyl‐1,3‐benzodioxole] | – | 82.7 ± 15.6% | 109% | – | – | – | ΔTm at 1000 µM ([1]; Supplementary Table 1, compound 1mM, mean ± SD from Boltzman curve fitting, read-out: Tb Ino1 Tm Shift [˚C]): 0.38 ± 0.06 °C |
| CN(N)c1cc(C(F)(F)F)ccn1 [compound 554, 2‐(1‐methylhydrazino)‐4‐(trifluoromethyl)pyridine] | – | – | – | 0.15 ± 0.08 °C | 95.6 ± 16.7 percentage of controls | 96.1 percentage of controls | – |
| CC(=O)Nc1cc(C)ccc1O [compound 303, N1‐(2‐hydroxy‐5‐methylphenyl)acetamide] | – | – | – | 0.15 ± 0.07 °C | 95.3 ± 9.8 percentage of controls | 45 percentage of controls | – |
| CC(=O)c1cc(F)cc(F)c1O [compound 360, 1‐(3,5‐difluoro‐2‐hydroxyphenyl)ethan‐1‐one] | – | – | – | 1.29 ± 0.05 °C | 103.5 ± 10 percentage of controls | 149.7 percentage of controls | – |
| CNCc1ccc2c(c1)OCO2 [compound 305, N‐(1,3‐benzodioxol‐5‐ylmethyl)‐N‐methylamine] | – | – | – | 1.12 ± 0.05 °C | 56.8 ± 29.4 percentage of controls | 58.3 percentage of controls | – |
| Nc1cccc(N2CCOCC2)c1 [compound 441, 3‐morpholin‐4‐ylaniline] | 0.27 ± 0.08 °C | 77.7 ± 16.7% | 85% | – | – | – | – |
| NC1=CC=C2OCOCC2C1 (centres unmarked) [compound 195, 4,5‐dihydro‐1,3‐benzodioxine‐6‐amine] | 1.16 ± 0.06 °C | 77.4 ± 10.5% | 54.1% | – | – | – | – |
